# Assay results from ChEMBL document CHEMBL1201862, “PubChem BioAssay data set” (2004).
#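 Cultured in 96-well plates, cells were exposed to test compound for 48 hours across five concentrations. GI50 is the concentration that inhibits growth by half.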 Activity calls are given as the source filed them. No stated cut-off is given here; in the data, active = GI50 up to about 1.1 µM and inactive = higher.
# Key:
# Experiment in all cases: growth of human tumour cells (NCI), 48 h
# SF-268 = test system: SF-268
# MCF7 = test system: MCF7
# KM12 = test system: KM12
# A549 = test system: A549
# OVCAR-3 = test system: OVCAR-3
# NCI/ADR-RES = test system: NCI/ADR-RES
# MDA-MB-435 = test system: MDA-MB-435
# IGROV-1 = test system: IGROV-1
# HCT-116 = test system: HCT-116
# SK-MEL-5 = test system: SK-MEL-5
# EKVX = test system: EKVX
# K562 = test system: K562
# U-251 = test system: U-251
# SNB-75 = test system: SNB-75
# SW-620 = test system: SW-620
# HT-29 = test system: HT-29
# NCI-H460 = test system: NCI-H460
# UO-31 = test system: UO-31
# OVCAR-8 = test system: OVCAR-8
# MDA-MB-231 = test system: MDA-MB-231
# SNB-19 = test system: SNB-19
# SR = test system: SR
# M14 = test system: M14
# Hs-578T = test system: Hs-578T
# PC-3 = test system: PC-3
# ACHN = test system: ACHN
# NCI-H23 = test system: NCI-H23
# BT-549 = test system: BT-549
# OVCAR-4 = test system: OVCAR-4
# SN12C = test system: SN12C
# SK-OV-3 = test system: SK-OV-3
# COLO 205 = test system: COLO 205
# CAKI-1 = test system: CAKI-1
# NCI-H522 = test system: NCI-H522
# DU-145 = test system: DU-145
# CCRF-CEM = test system: CCRF-CEM
# 786-0 = test system: 786-0
# MOLT-4 = test system: MOLT-4
# T47D = test system: T47D
# UACC-62 = test system: UACC-62
# NCI-H226 = test system: NCI-H226
# HCT-15 = test system: HCT-15
# HL-60 = test system: HL-60
# SK-MEL-2 = test system: SK-MEL-2
# SF-539 = test system: SF-539
# A498 = test system: A498
# SF-295 = test system: SF-295
# MDA-N = test system: MDA-N
# SK-MEL-28 = test system: SK-MEL-28
# RPMI-8226 = test system: RPMI-8226
# RXF 393 = test system: RXF 393
# HCC 2998 = test system: HCC 2998
# HOP-62 = test system: HOP-62
# UACC-257 = test system: UACC-257
# HOP-92 = test system: HOP-92
# TK-10 = test system: TK-10
# OVCAR-5 = test system: OVCAR-5
# LOX IMVI = test system: LOX IMVI
smiles,measurement,setting,value
Cn1c(-c2cccs2)cc(-c2cccs2)c1-c1ccco1,GI50,SF-268,> 66.4 µM (inactive)
same,GI50,MCF7,0.473 µM (active)
same,GI50,KM12,6.07 µM (inactive)
same,GI50,A549,50.8 µM (inactive)
same,GI50,OVCAR-3,19.2 µM (inactive)
same,GI50,NCI/ADR-RES,40.7 µM (inactive)
same,GI50,MDA-MB-435,7.16 µM (inactive)
same,GI50,IGROV-1,> 48.9 µM (inactive)
same,GI50,HCT-116,27.7 µM (inactive)
same,GI50,SK-MEL-5,23.8 µM (inactive)
same,GI50,EKVX,16.6 µM (inactive)
same,GI50,K562,10.2 µM (inactive)
same,GI50,U-251,56.1 µM (inactive)
same,GI50,SNB-75,31.8 µM (inactive)
same,GI50,SW-620,50.5 µM (inactive)
same,GI50,HT-29,> 67.6 µM (inactive)
same,GI50,NCI-H460,38.7 µM (inactive)
same,GI50,UO-31,31.5 µM (inactive)
same,GI50,OVCAR-8,> 100 µM (inactive)
same,GI50,MDA-MB-231,51.4 µM (inactive)
same,GI50,SNB-19,> 100 µM (inactive)
same,GI50,SR,14.8 µM (inactive)
same,GI50,M14,26.4 µM (inactive)
same,GI50,Hs-578T,26.5 µM (inactive)
same,GI50,PC-3,72.6 µM (inactive)
same,GI50,ACHN,> 93.3 µM (inactive)
same,GI50,NCI-H23,3.02 µM (inactive)
same,GI50,BT-549,> 100 µM (inactive)
same,GI50,OVCAR-4,1.7 µM (inactive)
same,GI50,SN12C,> 94.6 µM (inactive)
same,GI50,SK-OV-3,> 100 µM (inactive)
same,GI50,COLO 205,27.5 µM (inactive)
same,GI50,CAKI-1,11.4 µM (inactive)
same,GI50,NCI-H522,21.2 µM (inactive)
same,GI50,DU-145,> 100 µM (inactive)
same,GI50,CCRF-CEM,28.8 µM (inactive)
same,GI50,786-0,69.2 µM (inactive)
same,GI50,MOLT-4,1.8 µM (inactive)
same,GI50,T47D,1.06 µM (active)
same,GI50,UACC-62,30.9 µM (inactive)
same,GI50,NCI-H226,> 100 µM (inactive)
same,GI50,HCT-15,14.4 µM
same,GI50,HL-60,23.9 µM (inactive)
same,GI50,SK-MEL-2,30.3 µM (inactive)
same,GI50,SF-539,> 100 µM (inactive)
same,GI50,A498,27.7 µM (inactive)
same,GI50,SF-295,29.4 µM (inactive)
same,GI50,MDA-N,39.5 µM (inactive)
same,GI50,SK-MEL-28,49.1 µM (inactive)
same,GI50,RPMI-8226,31 µM (inactive)
same,GI50,RXF 393,27.9 µM (inactive)
same,GI50,HCC 2998,26.6 µM (inactive)
same,GI50,HOP-62,> 92 µM (inactive)
same,GI50,UACC-257,39.9 µM (inactive)
same,GI50,HOP-92,63 µM (inactive)
same,GI50,TK-10,41.7 µM (inactive)
same,GI50,OVCAR-5,> 100 µM (inactive)
same,GI50,LOX IMVI,22.7 µM (inactive)
CC1(C)C2CCC1(C)[C@H](n1c(=O)n([C@@H]3CC4CCC3(C)C4(C)C)c(=O)n([C@@H]3CC4CCC3(C)C4(C)C)c1=O)C2,GI50,SF-268,41.6 µM (inactive)
same,GI50,MCF7,71.9 µM (inactive)
same,GI50,KM12,58.1 µM (inactive)
same,GI50,A549,31.8 µM (inactive)
same,GI50,OVCAR-3,35.4 µM (inactive)
same,GI50,NCI/ADR-RES,> 100 µM (inactive)
same,GI50,MDA-MB-435,76.7 µM (inactive)
same,GI50,IGROV-1,65.6 µM (inactive)
same,GI50,HCT-116,36.7 µM (inactive)
same,GI50,SK-MEL-5,34 µM (inactive)
same,GI50,EKVX,30 µM (inactive)
same,GI50,K562,85.9 µM (inactive)
same,GI50,U-251,25.3 µM (inactive)
same,GI50,SNB-75,16.2 µM (inactive)
same,GI50,SW-620,98.2 µM (inactive)
same,GI50,HT-29,56.8 µM (inactive)
same,GI50,NCI-H460,31.2 µM (inactive)
same,GI50,UO-31,38.7 µM (inactive)
same,GI50,OVCAR-8,49.9 µM (inactive)
same,GI50,MDA-MB-231,45.5 µM (inactive)
same,GI50,SR,71.4 µM (inactive)
same,GI50,M14,> 100 µM (inactive)
same,GI50,Hs-578T,37.9 µM (inactive)
same,GI50,PC-3,67.9 µM (inactive)
same,GI50,ACHN,37.8 µM (inactive)
same,GI50,NCI-H23,63 µM (inactive)
same,GI50,BT-549,67.1 µM (inactive)
same,GI50,OVCAR-4,> 100 µM (inactive)
same,GI50,CAKI-1,66.7 µM (inactive)
same,GI50,NCI-H522,37.4 µM (inactive)
same,GI50,DU-145,55.7 µM (inactive)
same,GI50,786-0,28 µM (inactive)
same,GI50,MOLT-4,63.4 µM (inactive)
same,GI50,T47D,42.6 µM (inactive)
same,GI50,NCI-H226,27.7 µM (inactive)
same,GI50,HCT-15,49.2 µM
same,GI50,HL-60,23.9 µM (inactive)
same,GI50,SK-MEL-2,22.3 µM (inactive)
same,GI50,SF-539,17.8 µM (inactive)
same,GI50,A498,88.5 µM (inactive)
same,GI50,SF-295,29.6 µM (inactive)
same,GI50,MDA-N,68.4 µM (inactive)
same,GI50,SK-MEL-28,92 µM (inactive)
same,GI50,RPMI-8226,57.9 µM (inactive)
same,GI50,RXF 393,19.8 µM (inactive)
same,GI50,HCC 2998,22 µM (inactive)
same,GI50,HOP-62,44.4 µM (inactive)
same,GI50,UACC-257,55.8 µM (inactive)
same,GI50,HOP-92,87.7 µM (inactive)
same,GI50,TK-10,42.9 µM (inactive)
same,GI50,OVCAR-5,64 µM (inactive)
same,GI50,LOX IMVI,> 100 µM (inactive)
